Test results from publication PMC5584945, “Evaluation of robenidine analog NCL195 as a novel broad-spectrum antibacterial agent” (PLoS ONE, 2017).
Read-outs that look alike come from different tables or passages of the source.

Columns and labels:
Test in all cases: MIC alone and checkerboard with EDTA or polymyxin B
Format in all cases: cell-based
A. baumannii = details: for MIC of polymyxin B in combination with NCL195: with NCL195 0.5 μg/ml; for MIC: Acinetobacter baumannii, read-out: MIC, agent alone
Procedure: (§1) MICs for NCL812 and its analogs (serial two-fold dilutions commencing at 128 μg/ml) were determined (in duplicate) in round bottom 96-well microtitre trays (Sarstedt 82.1582.001), using the broth micro-dilution method recommended by the Clinical and Laboratory Standards Institute (CLSI). […] MIC50, MIC90 and MIC range for NCL812, NCL195 and NCL219 were calculated against each S. pneumoniae, S. aureus or VRE isolate. To assess the potential activity of NCL195 against Gram-negative bacteria, MICs against Acinetobacter spp, E. coli, K. pneumoniae, P. aeruginosa, Proteus spp and Neisseria meningitidis were performed in the presence or absence of 0.08 mM-20 mM EDTA in a standard checkerboard assay.

E. coli = details: for MIC of polymyxin B in combination with NCL195: with NCL195 0.25 μg/ml; for MIC: Escherichia coli, read-out: MIC, agent alone
Procedure: as §1

K. pneumoniae = details: for MIC of EDTA in combination with NCL195: with NCL195 4 μg/ml; for MIC: Klebsiella pneumoniae, read-out: MIC, agent alone
Procedure: as §1

P. aeruginosa = details: for MIC of polymyxin B in combination with NCL195: with NCL195 1 μg/ml; for MIC: Pseudomonas aeruginosa, read-out: MIC, agent alone
Procedure: as §1

Polymyxin B sulfate
MIC, agent alone (A. baumannii; A. baumannii ATCC 12457): 0.5 µg/mL
MIC of polymyxin B in combination with NCL195 (A. baumannii; A. baumannii ATCC 12457): 0.125 µg/mL
MIC, agent alone (A. baumannii; A. baumannii ATCC 19606): 0.5 µg/mL
MIC of polymyxin B in combination with NCL195 (A. baumannii; A. baumannii ATCC 19606): 0.125 µg/mL
MIC, agent alone (E. coli; E. coli ATCC 11229): 0.25 µg/mL
MIC of polymyxin B in combination with NCL195 (E. coli; E. coli ATCC 11229): 0.125 µg/mL
MIC, agent alone (E. coli; E. coli ATCC 25922): 0.25 µg/mL
MIC of polymyxin B in combination with NCL195 (E. coli; E. coli ATCC 25922): 0.125 µg/mL
MIC, agent alone (K. pneumoniae; K. pneumoniae ATCC 4352): 0.25 µg/mL
MIC of polymyxin B in combination with NCL195 (K. pneumoniae; K. pneumoniae ATCC 4352, with NCL195 0.5 μg/ml): 0.125 µg/mL
MIC, agent alone (K. pneumoniae; K. pneumoniae ATCC 33495): 0.25 µg/mL
MIC of polymyxin B in combination with NCL195 (K. pneumoniae; K. pneumoniae ATCC 33495, with NCL195 0.25 μg/ml): 0.125 µg/mL
MIC, agent alone (P. aeruginosa; P. aeruginosa ATCC 27853): 0.5 µg/mL
MIC of polymyxin B in combination with NCL195 (P. aeruginosa; P. aeruginosa ATCC 27853): 0.125 µg/mL
MIC, agent alone (P. aeruginosa; P. aeruginosa PA01): 0.5 µg/mL
MIC of polymyxin B in combination with NCL195 (P. aeruginosa; P. aeruginosa PA01): 0.125 µg/mL

O=C(O)CN(CCN(CC(=O)O)CC(=O)O)CC(=O)O [EDTA, Ethylenediaminetetraacetic acid]
MIC of EDTA in combination with NCL195 (A. baumannii; A. baumannii ATCC 12457, with NCL195 4 μg/ml): 250 µM
MIC of EDTA in combination with NCL195 (A. baumannii; A. baumannii ATCC 19606, with NCL195 2 μg/ml): 500 µM
MIC (A. baumannii; ATCC12457, A. baumannii ATCC 12457): 500 µM
MIC (A. baumannii; ATCC19606, A. baumannii ATCC 19606): 1000 µM
MIC of EDTA in combination with NCL195 (E. coli; E. coli ATCC 11229, with NCL195 8 μg/ml): 625 µM
MIC of EDTA in combination with NCL195 (E. coli; E. coli ATCC 25922, with NCL195 4 μg/ml): 2500 µM
MIC (E. coli; ATCC11229, E. coli ATCC 11229): 2500 µM
MIC (E. coli; ATCC25922, E. coli ATCC 25922): 10000 µM
MIC of EDTA in combination with NCL195 (K. pneumoniae; K. pneumoniae ATCC 4352): 10000 µM
MIC of EDTA in combination with NCL195 (K. pneumoniae; K. pneumoniae ATCC 33495): 10000 µM
MIC (K. pneumoniae; ATCC4352, K. pneumoniae ATCC 4352): > 30000 µM
MIC (K. pneumoniae; ATCC33495, K. pneumoniae ATCC 33495): > 30000 µM
MIC of EDTA in combination with NCL195 (P. aeruginosa; P. aeruginosa ATCC 27853, with NCL195 2 μg/ml): 5000 µM
MIC of EDTA in combination with NCL195 (P. aeruginosa; P. aeruginosa PA01, with NCL195 0.25 μg/ml): 1250 µM
MIC (P. aeruginosa; ATCC27853, P. aeruginosa ATCC 27853): 10000 µM
MIC (P. aeruginosa; P. aeruginosa PA01): 2500 µM
